From ChEMBL document CHEMBL4813953, “Kinetics-Driven Drug Design Strategy for Next-Generation Acetylcholinesterase Inhibitors to Clinical Candidate” (J Med Chem, 2021)
The source made the active and inactive calls. No cut-off for these calls is given here.

What was measured:
Acetylcholinesterase = Acetylcholinesterase (Homo sapiens, UniProt P22303); assay: Binding affinity to CM5 sensor chip immobilized recombinant human AChE assessed as dissociation constant at 298.15 K by surface plasmon resonance assay
Sequence of Acetylcholinesterase (P22303 whole entry): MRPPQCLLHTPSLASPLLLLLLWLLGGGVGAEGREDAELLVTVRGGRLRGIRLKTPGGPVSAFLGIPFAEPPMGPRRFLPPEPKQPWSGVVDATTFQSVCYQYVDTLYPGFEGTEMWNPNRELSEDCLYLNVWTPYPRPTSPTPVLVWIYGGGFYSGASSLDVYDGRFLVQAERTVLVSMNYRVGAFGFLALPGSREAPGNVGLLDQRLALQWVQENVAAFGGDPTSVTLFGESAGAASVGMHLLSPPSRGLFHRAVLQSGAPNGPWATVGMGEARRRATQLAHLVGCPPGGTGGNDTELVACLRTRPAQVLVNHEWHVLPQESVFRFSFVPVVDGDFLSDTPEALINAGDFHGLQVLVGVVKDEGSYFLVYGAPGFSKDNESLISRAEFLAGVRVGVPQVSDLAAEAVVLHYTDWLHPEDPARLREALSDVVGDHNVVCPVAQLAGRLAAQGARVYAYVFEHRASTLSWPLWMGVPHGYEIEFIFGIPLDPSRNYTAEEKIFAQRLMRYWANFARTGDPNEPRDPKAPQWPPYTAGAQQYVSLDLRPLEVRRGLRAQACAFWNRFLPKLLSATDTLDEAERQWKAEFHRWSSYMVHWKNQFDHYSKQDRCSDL

[1] = Tmax in human plasma at 1 mg, po; format: ADME, cell-free
[2] = Tmax in human plasma at 2 mg, po; format: ADME, cell-free
[3] = Cmax in Sprague-Dawley rat at 0.5 mg/kg, po; format: ADME, organism-based; parameters: route oral, dose 0.5 mg/kg; conditions: in vivo
[4] = Cmax in Beagle dog at 0.25 mg/kg, po; format: ADME, organism-based, Canis lupus familiaris; parameters: route oral, dose 0.25 mg/kg; conditions: in vivo
[5] = Cmax in human plasma at 1 mg, po; format: ADME, cell-free; parameters: route oral, dose 1 mg
[6] = Cmax in human plasma at 2 mg, po; format: ADME, cell-free; parameters: route oral, dose 2 mg
[7] = Cmax in human plasma at 8 mg, po; format: ADME, cell-free; parameters: route oral, dose 8 mg
[8] = MRT (0 to infinity) in Sprague-Dawley rat at 0.5 mg/kg, iv; format: ADME, organism-based; conditions: in vivo
[9] = Terminal half life in human plasma at 2 mg, po; format: ADME, cell-free; conditions: read-out: beta t1/2 (converted)
[10] = Terminal half life in human plasma at 8 mg, po; format: ADME, cell-free; conditions: read-out: beta t1/2 (converted)
[11] = Volume of distribution at steady state in Sprague-Dawley rat at 0.5 mg/kg, po or iv; format: ADME, organism-based; conditions: in vivo, read-out: Vdss
[12] = Oral bioavailability in Beagle dog at 0.25 mg/kg; format: ADME, organism-based, Canis lupus familiaris; conditions: in vivo
[13] = AUC(0 to t) in Sprague-Dawley rat brain at 10 mg/kg, po; format: ADME, organism-based; parameters: dose 10 mg/kg
[14] = AUC (0 to infinity) in Sprague-Dawley rat plasma at 10 mg/kg, po; format: ADME, organism-based; parameters: route oral, time infinity, dose 10 mg/kg
[15] = Protein binding in human plasma; format: ADME, cell-free; conditions: read-out: PPB (converted)
[16] = Protein binding in dog plasma; format: ADME, cell-free, Canis lupus familiaris; conditions: read-out: PPB (converted)
[17] = Permeability in human Caco-2 cells at 2 to 50 uM; format: ADME, cell-based; conditions: dose 2-50 µM, read-out: permeability
[18] = Genotoxicity in Salmonella typhimurium TA97 by Ames test; format: toxicity; conditions: salmonella enterica subsp. enterica serovar typhimurium
[19] = Genotoxicity in Salmonella typhimurium TA98 by Ames test; format: toxicity; conditions: salmonella enterica subsp. enterica serovar typhimurium
[20] = Genotoxicity in Salmonella typhimurium TA102 by Ames test; format: toxicity; conditions: salmonella enterica subsp. enterica serovar typhimurium
Mus musculus [21] = assay: Cognitive enhancing effect in mouse model of scopolamine-induced memory impairment assessed as reduction in escape latency time at 0.5 to 2 mg/kg, IG QD for 3 days by channel water maze test; format: functional, organism-based; conditions: dose 0.5-2 mg/kg, time 3.0 day
Mus musculus [22] = assay: Cognitive enhancing effect in mouse model of scopolamine-induced memory impairment assessed as reduction in number of errors at 1 to 2 mg/kg, IG QD for 3 days by channel water maze test; format: functional, organism-based; conditions: dose 1-2 mg/kg, time 3.0 day
Mus musculus [23] = assay: Improvement in learning and spatial memory in APP/PS1 double mutant-transgenic mouse model assessed as increase in number of platform crossings at 0.5 to 1 mg/kg, po for 3 months measured during probe trial by Morris water maze test; format: functional, organism-based; conditions: dose 0.5-1 mg/kg
[24] = Cardiotoxicity in Beagle dog assessed as effect on PR interval at 0.1 to 1 mg/kg; format: toxicity, organism-based, Canis lupus familiaris; conditions: in vivo, dose 0.1-1 mg/kg
[25] = Toxicity in Beagle dog assessed as effect on respiration at 0.1 to 1 mg/kg; format: organism-based, Canis lupus familiaris; conditions: in vivo, dose 0.1-1 mg/kg
Cytochrome P450 2B6 = target: T1, Cytochrome P450 2B6 (Homo sapiens, UniProt P20813); assay: Inhibition of CYP2B6 in human hepatocytes; format: ADME, cell-based, Hepatocyte
T1 sequence (P20813 whole entry): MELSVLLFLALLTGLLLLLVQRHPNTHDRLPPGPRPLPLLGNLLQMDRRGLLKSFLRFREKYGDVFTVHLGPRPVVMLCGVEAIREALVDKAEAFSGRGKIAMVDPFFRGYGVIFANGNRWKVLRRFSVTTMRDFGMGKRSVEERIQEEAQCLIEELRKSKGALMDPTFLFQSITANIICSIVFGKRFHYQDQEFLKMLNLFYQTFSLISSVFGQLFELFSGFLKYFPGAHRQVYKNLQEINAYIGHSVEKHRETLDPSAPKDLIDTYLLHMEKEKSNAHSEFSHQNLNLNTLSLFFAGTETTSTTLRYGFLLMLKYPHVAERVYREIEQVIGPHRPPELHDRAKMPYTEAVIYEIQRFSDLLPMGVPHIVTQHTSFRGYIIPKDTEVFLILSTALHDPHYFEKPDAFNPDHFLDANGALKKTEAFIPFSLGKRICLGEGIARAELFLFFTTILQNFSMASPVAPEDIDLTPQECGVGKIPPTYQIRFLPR

Cytochrome P450 2C8 = target: T2, Cytochrome P450 2C8 (Homo sapiens, UniProt P10632); assay: Inhibition of CYP2C8 in human hepatocytes; format: ADME, cell-based, Hepatocyte
T2 sequence (P10632 whole entry): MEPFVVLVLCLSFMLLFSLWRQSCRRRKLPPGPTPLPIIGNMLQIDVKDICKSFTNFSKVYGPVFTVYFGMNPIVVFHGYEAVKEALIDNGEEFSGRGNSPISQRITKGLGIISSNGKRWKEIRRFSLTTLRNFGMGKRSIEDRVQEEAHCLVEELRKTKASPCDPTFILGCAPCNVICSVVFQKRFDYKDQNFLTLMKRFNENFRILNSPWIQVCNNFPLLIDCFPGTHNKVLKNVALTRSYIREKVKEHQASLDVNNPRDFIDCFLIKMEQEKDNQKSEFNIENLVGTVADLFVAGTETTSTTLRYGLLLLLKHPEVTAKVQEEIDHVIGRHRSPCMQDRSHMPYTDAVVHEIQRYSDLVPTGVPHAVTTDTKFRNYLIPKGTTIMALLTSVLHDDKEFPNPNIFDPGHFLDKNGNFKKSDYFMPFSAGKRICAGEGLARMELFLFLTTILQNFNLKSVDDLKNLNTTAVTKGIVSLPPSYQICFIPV

Cytochrome P450 2C19 = Cytochrome P450 2C19 (Homo sapiens, UniProt P33261); assay: Inhibition of CYP2C19 in human hepatocytes; format: ADME, cell-based, Hepatocyte
Sequence of Cytochrome P450 2C19 (P33261 whole entry): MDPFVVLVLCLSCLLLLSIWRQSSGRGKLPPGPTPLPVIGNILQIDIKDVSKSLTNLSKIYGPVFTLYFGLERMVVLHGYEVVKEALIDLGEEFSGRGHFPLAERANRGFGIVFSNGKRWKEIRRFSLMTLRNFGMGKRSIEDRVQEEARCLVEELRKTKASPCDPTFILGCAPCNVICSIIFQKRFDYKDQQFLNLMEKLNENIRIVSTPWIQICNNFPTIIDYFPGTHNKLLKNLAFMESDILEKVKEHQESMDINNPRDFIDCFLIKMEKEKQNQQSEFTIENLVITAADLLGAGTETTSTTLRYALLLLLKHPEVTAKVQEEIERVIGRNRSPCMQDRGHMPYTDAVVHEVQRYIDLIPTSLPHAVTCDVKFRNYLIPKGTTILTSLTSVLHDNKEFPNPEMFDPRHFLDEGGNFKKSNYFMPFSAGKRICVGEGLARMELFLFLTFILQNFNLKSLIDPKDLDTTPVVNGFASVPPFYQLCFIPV

Cytochrome P450 2D6 = Cytochrome P450 2D6 (Homo sapiens, UniProt P10635); assay: Inhibition of CYP2D6 in human hepatocytes; format: ADME, cell-based, Hepatocyte
Sequence of Cytochrome P450 2D6 (P10635 whole entry): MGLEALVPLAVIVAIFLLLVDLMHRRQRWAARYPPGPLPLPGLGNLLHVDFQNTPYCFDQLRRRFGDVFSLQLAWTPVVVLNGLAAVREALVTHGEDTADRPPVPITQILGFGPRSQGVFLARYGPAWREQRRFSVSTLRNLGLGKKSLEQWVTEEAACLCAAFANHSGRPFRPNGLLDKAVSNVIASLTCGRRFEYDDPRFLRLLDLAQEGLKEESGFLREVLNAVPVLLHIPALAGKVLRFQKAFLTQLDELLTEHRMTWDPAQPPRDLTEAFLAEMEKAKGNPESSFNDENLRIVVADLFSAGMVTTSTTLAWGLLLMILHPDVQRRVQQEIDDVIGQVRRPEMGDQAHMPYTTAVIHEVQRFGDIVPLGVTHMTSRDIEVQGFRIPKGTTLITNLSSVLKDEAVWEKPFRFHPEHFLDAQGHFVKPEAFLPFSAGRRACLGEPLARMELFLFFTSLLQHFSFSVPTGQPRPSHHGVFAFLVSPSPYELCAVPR

[26] = Induction of CYP3A4 expression in human hepatocytes at 10 uM; format: ADME, cell-based, Hepatocyte

Structure (SMILES): COc1cc2c(cc1OC)C(=O)C(CC1(F)CCN(Cc3ccccc3F)CC1)C2 (stereo unspecified)
- Kd (Acetylcholinesterase): 0.0035 µM
- Tmax [1]: 1.5 h
- Tmax [2]: 1.5 h
- Cmax [3]: 35.7 ng/mL
- Cmax [4]: 16.9 ng/mL
- Cmax [5]: 1.19 ng/mL
- Cmax [6]: 2.43 ng/mL
- Cmax [7]: 16.4 ng/mL
- MRT inf [8]: 5.21 h
- half-life [9]: 20.7 h
- half-life [10]: 27.6 h
- Vd [11]: 6.52 L/kg
- bioavailability [12]: 61.3%
- AUC(0-t) [13]: 5840 ng·h/mL
- AUC(0-inf) [14]: 1140 ng·h/mL
- fraction unbound [15]: 0.022
- fraction unbound [16]: 0.035
- Papp at up to 50 µM [17]: 0.574 ×10⁻⁶ cm/s
- Activity [18]: Non-Toxic
- Activity [19]: Non-Toxic
- Activity [20]: Non-Toxic
- Activity (Mus musculus [21]): Active
- Activity (Mus musculus [22]): Active
- Activity (Mus musculus [23]): Active
- Activity [24]: Non-Toxic
- Activity [25]: Non-Toxic
- IC50 (Cytochrome P450 2B6): > 30 µM
- IC50 (Cytochrome P450 2C8): > 30 µM
- IC50 (Cytochrome P450 2C19): > 30 µM
- IC50 (Cytochrome P450 2D6): > 30 µM
- Activity [26]: Non-Toxic
